Key:
GCN2 = GCN2 (Homo sapiens, UniProt Q9P2K8); experiment: GCN2 enzyme assay (TR-FRET Lanthascreen, GFP-eIF2alpha substrate); type: biochemical
In short: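 GCN2 (30 nM) incubated at room temperature with 10 μM ATP and 80 nM GFP-eIF2alpha in 50 mM Hepes pH 7.0, 10 mM MgCl2, 5 mM MnCl2, 2 mM DTT, 0.1% BSA, 1% DMSO. Reaction stopped with EDTA; phospho-eIF2alpha detected by antibody TR-FRET, excitation 340 nm.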

SYK = molecular target: T1, SYK (Homo sapiens, UniProt P43405); experiment: SYK enzyme assay (Flash plate assay / Caliper mobility shift assay); type: biochemical
T1 construct: purchased BPS Bioscience, CA, USA
Procedure: The kinase assay is performed either as 384-well Flashplate assay (for e.g. Topcount measurement) or as 384-well Image-Flashplate assay (for LEADseeker measurement).
2.5 nM SYK, 400 nM Biotin-Aha-Aha-[…]
and 10 μM ATP (spiked with 0.3 μCi 33P-ATP/well) are incubated in a total volume of 50 μl (60 mM Hepes, 10 mM MgCl2, 1.2 mM Dithiothreitol, 0.02% Brij35, 0.1% BSA, pH 7.5) with or without test compound for 1 hours at 30° C. The reaction is stopped with 25 μl 200 mM EDTA. After 30 Min at 30° C. the liquid is removed and each well washed thrice with 100 μl 0.9% sodium chloride solution. Non-specific reaction is determined in presence of 0.1 μM Staurosporine. Radioactivity is measured with Topcount (when using Flashplates) or with LEADseeker (when using Image-Flashplates) respectively. Results (e.g. IC50-values) are calculated with program tools provided by the IT-department (e.g. Symyx Assay Explorer, Genedata Screener).
Enzymatic Assays Using the Caliper LifeSciences Technology
The assays described here are performed on the Caliper Life Sciences LC3000 system This technology provides data on enzyme activity via measurement of the relative amounts of phosphorylated or unphosphorylated fluorescently labelled substrate peptide at the end of an enzymatic reaction.
These different states of peptide are resolved by applying a potential difference across the sample. The presence of the charged phosphate group on the product (as opposed to the substrate) causes a different peptide mobility between the two peptides. This is visualized by excitation of the fluorescent label on the substrate and product peptides and represented as peaks within the analysis software.
In order to measure inhibitor activity of kinase inhibitors on this technology, a TTP Mosquito liquid handling instrument is used to place 0.25 ul of the appropriate concentration of inhibitor in 100% DMSO (for a dose response curve calculation) into each well of a 384-well plate. To this reaction components are added to a final volume of 25 ul. The table below indicates the sequences and concentrations for the assays described in this report. Standard components are 1 mM DTT (Sigma, D0632), 1 mM MgCl2 (Sigma, M1028), 100 mM HEPES pH 7.5 (Calbiochem, 391338), 0.015% Brij-35 (Sigma, B4184).
The reaction is incubated for 90 min at 25 C, and then stopped by the addition of 70 ul of Stop buffer (100 mM HEPES pH 7.5, 0.015% Brij-35, 10 mM EDTA (Sigma, E7889)).
The plate is read on a Caliper LC 3000 in an Off-Chip mobility shift assay format, on a 12-sipper chip. Unphosphorylated substrate and phosphorylated product peptide resolve as separate peaks allowing direct measurement of percentage of conversion of substrate to product. The percent conversion can be plotted against concentration of inhibitor to produce a sigmoidal dose response curve, from which an IC50 can be calculated using GeneData Condoseo or a similar product.

[1] = 100% corresponds to zero effect, −50% corresponds to IC50

Chain of GCN2 (Q9P2K8 whole entry): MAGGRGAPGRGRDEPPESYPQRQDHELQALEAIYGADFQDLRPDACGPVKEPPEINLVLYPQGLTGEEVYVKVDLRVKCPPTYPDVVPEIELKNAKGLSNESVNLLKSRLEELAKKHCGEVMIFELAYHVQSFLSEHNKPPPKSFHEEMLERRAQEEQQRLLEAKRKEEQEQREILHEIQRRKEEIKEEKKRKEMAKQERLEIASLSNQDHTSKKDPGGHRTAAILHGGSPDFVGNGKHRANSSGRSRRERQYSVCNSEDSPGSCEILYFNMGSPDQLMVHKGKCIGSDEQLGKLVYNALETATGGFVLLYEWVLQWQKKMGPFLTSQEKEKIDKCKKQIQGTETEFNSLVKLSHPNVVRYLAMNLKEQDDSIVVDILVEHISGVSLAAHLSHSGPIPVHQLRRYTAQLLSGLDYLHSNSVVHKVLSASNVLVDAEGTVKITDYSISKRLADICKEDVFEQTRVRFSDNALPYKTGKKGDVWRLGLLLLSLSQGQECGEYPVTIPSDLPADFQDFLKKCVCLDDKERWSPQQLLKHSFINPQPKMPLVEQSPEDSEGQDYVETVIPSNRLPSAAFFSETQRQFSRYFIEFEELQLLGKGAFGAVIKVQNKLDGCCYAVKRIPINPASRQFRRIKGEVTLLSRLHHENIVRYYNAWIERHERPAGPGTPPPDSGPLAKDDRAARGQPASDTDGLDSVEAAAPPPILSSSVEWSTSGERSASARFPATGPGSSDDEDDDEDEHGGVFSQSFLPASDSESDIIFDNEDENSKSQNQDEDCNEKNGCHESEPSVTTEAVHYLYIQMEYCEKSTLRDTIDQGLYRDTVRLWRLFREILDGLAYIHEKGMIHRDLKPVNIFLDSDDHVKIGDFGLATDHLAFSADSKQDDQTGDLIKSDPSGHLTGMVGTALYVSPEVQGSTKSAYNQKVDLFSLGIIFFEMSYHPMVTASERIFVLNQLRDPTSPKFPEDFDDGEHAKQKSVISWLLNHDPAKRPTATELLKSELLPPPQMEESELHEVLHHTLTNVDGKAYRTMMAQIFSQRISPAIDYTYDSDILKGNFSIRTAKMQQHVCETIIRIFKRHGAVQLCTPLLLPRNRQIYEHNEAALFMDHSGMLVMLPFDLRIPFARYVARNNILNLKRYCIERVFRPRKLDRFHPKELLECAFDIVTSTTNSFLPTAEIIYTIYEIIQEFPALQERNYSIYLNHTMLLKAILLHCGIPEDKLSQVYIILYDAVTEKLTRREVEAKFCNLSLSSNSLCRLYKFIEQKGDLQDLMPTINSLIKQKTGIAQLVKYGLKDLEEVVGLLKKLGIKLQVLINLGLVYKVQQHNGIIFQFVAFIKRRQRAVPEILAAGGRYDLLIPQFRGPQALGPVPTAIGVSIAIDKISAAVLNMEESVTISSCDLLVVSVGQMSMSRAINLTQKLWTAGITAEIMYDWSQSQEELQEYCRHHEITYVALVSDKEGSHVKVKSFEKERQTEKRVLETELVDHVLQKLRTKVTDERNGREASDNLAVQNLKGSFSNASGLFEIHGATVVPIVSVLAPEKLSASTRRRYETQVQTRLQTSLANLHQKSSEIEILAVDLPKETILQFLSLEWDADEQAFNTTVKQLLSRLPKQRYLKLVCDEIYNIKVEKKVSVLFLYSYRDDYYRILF

SMILES	IC50 (GCN2) [nM]	IC50 (SYK) [nM]	SYK (enzyme assay) % at 3 μM (SYK; [1])	GCN2 (enzyme assay) % at 10 μM (GCN2; at 10 μM, 100% corresponds to zero effect, −50% corresponds to IC50)	SYK (enzyme assay) % at 1 μM (SYK; at 1 μM, 100% corresponds to zero effect, −50% corresponds to IC50)
Cc1cc(Nc2nc3cncc(-c4ccc(N5CCOCC5)cc4)n3n2)ccc1N1CCN(C)CC1 [Compound A17, [3-methyl-4-(4-methyl-piperazin-1-yl)-phenyl]-[5-(4-morpholin-4-yl-phenyl)-[1,2,4]triazolo[1,5-a]pyrazin-2-yl]-amine]	< 1000	1000 to 5000			
COc1cc(Nc2nc3cncc(-c4cnn(C)c4)n3n2)ccc1C(=O)NC1CC1 [Compound A72, N-cyclopropyl-2-methoxy-4-[5-(1-methyl-1H-pyrazol-4-yl)-[1,2,4]triazolo[1,5-a]pyrazin-2-ylamino]-benzamide]	< 1000	5000 to 10000			
CN1CCN(c2ccc(Nc3nc4cncc(Nc5cnn(C)c5)n4n3)cc2)CC1 [Compound A53, N2-[4-(4-methyl-piperazin-1-yl)-phenyl]-N5-(1-methyl-1H-pyrazol-4-yl)-[1,2,4] triazolo[1,5-a]pyrazine-2,5-diamine]	1000 to 5000		−23@3%		
O=C1Cc2cc(Nc3nc4cncc(-c5ccc(CN6CCOCC6)s5)n4n3)ccc2N1 [Compound A58, 5-[5-(5-morpholin-4-ylmethyl-thiophen-2-yl)-[1,2,4]triazolo[1,5-a]pyrazin-2-ylamino]-1,3-dihydro-indol-2-one]	< 1000		−34@3%		
COc1cc(N2CCN(C)CC2)ccc1Nc1nc2cncc(-c3cnn(C)c3)n2n1 [Compound A79, [2-methoxy-4-(4-methyl-piperazin-1-yl)-phenyl]-[5-(1-methyl-1H-pyrazol-4-yl)-[1,2,4]triazolo[1,5-a]pyrazin-2-yl]-amine]	5000 to 10000		−9@3%		
COc1cccc(Nc2nc3cncc(-c4ccc5c(cnn5C)c4)n3n2)c1 [Compound A2]	< 1000		−29@3%		
Fc1ccc(-c2cncc3nc(Nc4cccnc4)nn23)cc1 [Compound A27, [5-(4-fluoro-phenyl)-[1,2,4]triazolo[1,5-a]pyrazin-2-yl]-pyridin-3-yl-amine]	1000 to 5000		−6@3%		
COc1cc(Nc2nc3cncc(-c4ccccc4-c4ccccc4)n3n2)cc(OC)c1 [Compound A37]		1000 to 5000		3@10%	
Cc1cc(Nc2nc3cncc(-c4cnn(C)c4)n3n2)ccc1CN1CCOCC1 [Compound A68, (3-methyl-4-morpholin-4-ylmethyl-phenyl)-[5-(1-methyl-1H-pyrazol-4-yl)-[1,2,4]triazolo[1,5-a]pyrazin-2-yl]-amine]	< 1000	1000 to 5000			
COc1cc(Nc2nc3cncc(-c4cnn(C)c4)n3n2)ccc1CN1CCOCC1 [Compound A78, (3-methoxy-4-morpholin-4-ylmethyl-phenyl)-[5-(1-methyl-1H-pyrazol-4-yl)-[1,2,4]triazolo[1,5-a]pyrazin-2-yl]-amine]	< 1000	1000 to 5000			
COc1cc(Nc2nc3cncc(-c4cnn(C)c4)n3n2)ccc1NC(=O)C1CCNCC1 [Compound A84, piperidine-4-carboxylic acid {2-methoxy-4-[5-(1-methyl-1H-pyrazol-4-yl)-[1,2,4]triazolo[1,5-a]pyrazin-2-ylamino]-phenyl}-amide]	< 1000	5000 to 10000			
Cc1cc(Nc2nc3cncc(-c4cnn(CCC(C)C)c4)n3n2)ccc1N1CCN(C)CC1 [Compound A51, {5-[1-(3-methyl-butyl)-1H-pyrazol-4-yl]-[1,2,4]triazolo[1,5-a]pyrazin-2-yl}-[3-methyl-4-(4-methyl-piperazin-1-yl)-phenyl]-amine]	< 1000	< 1000			
COc1cccc(Nc2nc3cnc(Br)cn3n2)c1 [Compound A22]	< 1000		−15@3%		
Cn1ncc2cc(-c3cncc4nc(Nc5cccnc5)nn34)ccc21 [Compound A3, [5-(1-methyl-1H-indazol-5-yl)-[1,2,4]triazolo[1,5-a]pyrazin-2-yl]-pyridin-3-yl-amine]	1000 to 5000		−9@3%		
Cn1ncc2cc(-c3cncc4nc(Nc5ccc6c(c5)NC(=O)C6(C)C)nn34)ccc21 [Compound A5, 3,3-dimethyl-6-[5-(1-methyl-1H-indazol-5-yl)-[1,2,4]triazolo[1,5-a]pyrazin-2-ylamino]-1,3-dihydro-indol-2-one]	1000 to 5000	< 1000			
COc1ccc(-c2cncc3nc(Nc4ccc(N5CCN(C)CC5)c(OC)c4)nn23)cc1 [Compound A92, [3-methoxy-4-(4-methyl-piperazin-1-yl)-phenyl]-[5-(4-methoxy-phenyl)-[1,2,4]triazolo[1,5-a]pyrazin-2-yl]-amine]	< 1000	< 1000			
COc1cc(Nc2nc3cncc(-c4ccc(O)cc4)n3n2)ccc1N1CCN(C)CC1 [Compound A87, 4-{2-[3-methoxy-4-(4-methyl-piperazin-1-yl)-phenylamino]-[1,2,4]triazolo[1,5-a]pyrazin-5-yl}-phenol]	< 1000	< 1000			
COc1cc(Nc2nc3cncc(-c4ccc(NS(C)(=O)=O)cc4)n3n2)ccc1N1CCN(C)CC1 [Compound A93, N-(4-{2-[3-methoxy-4-(4-methyl-piperazin-1-yl)-phenylamino]-[1,2,4]triazolo[1,5-a]pyrazin-5-yl}-phenyl)-methanesulfonamide]	< 1000	1000 to 5000			
COc1cccc(Nc2nc3cncc(-c4cnn(C)c4)n3n2)c1 [Compound A30]	< 1000		−33@3%		
Cc1cc(Nc2nc3cncc(-c4cnn(C)c4)n3n2)ccc1NC(=O)C1CCNCC1 [Compound A82, piperidine-4-carboxylic acid {2-methyl-4-[5-(1-methyl-1H-pyrazol-4-yl)-[1,2,4]triazolo[1,5-a]pyrazin-2-ylamino]-phenyl}-amide]	< 1000	1000 to 5000			
NS(=O)(=O)c1cccc(Nc2nc3cncc(-c4cnc5ccccc5c4)n3n2)c1 [Compound A7, 3-(5-quinolin-3-yl-[1,2,4]triazolo[1,5-a]pyrazin-2-ylamino)-benzenesulfonamide]	5000 to 10000	1000 to 5000			
Cc1cc(Nc2nc3cncc(-c4cnn(C)c4)n3n2)ccc1NC(=O)C1CCOCC1 [Compound A83, tetrahydro-pyran-4-carboxylic acid {2-methyl-4-[5-(1-methyl-1H-pyrazol-4-yl)-[1,2,4]triazolo[1,5-a]pyrazin-2-ylamino]-phenyl}-amide]	< 1000	5000 to 10000			
N#Cc1cc(-c2cncc3nc(Nc4ccc(N5CCOCC5)cc4)nn23)ccc1OC1CCOCC1 [Compound A63, 5-[2-(4-morpholin-4-yl-phenylamino)-[1,2,4]triazolo[1,5-a]pyrazin-5-yl]-2-(tetrahydro-pyran-4-yloxy)-benzonitrile]	1000 to 5000		−30@3%		
CNS(=O)(=O)c1ccc(-c2cncc3nc(Nc4ccc(N5CCN(C)CC5)c(OC)c4)nn23)cc1 [Compound A94, 4-{2-[3-methoxy-4-(4-methyl-piperazin-1-yl)-phenylamino]-[1,2,4]triazolo[1,5-a]pyrazin-5-yl}-N-methyl-benzenesulfonamide]	< 1000	1000 to 5000			
Cn1cc(-c2cncc3nc(Nc4cccc(N5CCOCC5)c4)nn23)cn1 [Compound A80, [5-(1-methyl-1H-pyrazol-4-yl)-[1,2,4]triazolo[1,5-a]pyrazin-2-yl]-(3-morpholin-4-yl-phenyl)-amine]	< 1000				−26@1%
Cc1cc(Nc2nc3cncc(-c4cnn(C)c4)n3n2)ccc1C(=O)NC1CC1 [Compound A71, N-cyclopropyl-2-methyl-4-[5-(1-methyl-1H-pyrazol-4-yl)-[1,2,4]triazolo[1,5-a]pyrazin-2-ylamino]-benzamide]	< 1000	1000 to 5000			
